Measured values taken from PMC10734772 (Turkish Journal of Chemistry, 2021).

Tests used:
Type in all cases: cell-based
K562 = assay: MTT assay, K562 cells; conditions: Homo sapiens, 24 h
Description: (§1) K562, Jurkat and Molt-4 cell lines were seeded as 4x10^5/ml, Reh and Nalm-6 cell lines were seeded 5x10^5/ml, Hek293T cell line was seed as 2x10^5/ml.
(§2) MTT assay is a 3-day test. On the first day, cell count was performed in Bio Rad TC-20 device with the help of trypan blue, each cell line was prepared by diluting to the specified concentrations and seeded in a 96-well plate as 100μL to each well and incubated for 1 day.
(§3) On the second day, stock solutions were subsequently diluted to various concentrations (0.3–200 μM) with related medium prior to experiments. Specified concentrations of the compounds were seeded in a 96-well plate as 100μL to each well and incubated for 24 h.
(§4) After incubation (on the third day), to precipitate leukemia cells, the cell plate was centrifuged at 1500 rpm for 5 min. […] The 50 μl of supernatant was discarded from each well and 100 μl of DMSO was added to dissolve the formazan. Plates were shaken for 45 min to dissolve the dye. Then the optical density of each well was measured by using Thermo VarioSkan Flush Multimode Reader Quantum ST5-1100 at 570 nm wavelength.
(§5) Subsequently, viability rate of the cells at each concentration, as percentage, was determined by following formula (1):
(§6) Viability rate (%)=100-[(OD(control)-OD(sample))/OD(control)×100].OD=Optical Density
(§7) The IC50 values were calculated by using GraphPad Prism. All the data presented as the mean of 6 replicates. […] Statistical analysis was performed using dose-response inhibition, log(inhibitor) vs response-variable slope, least squares (ordinary) fit.

Jurkat = assay: MTT assay, Jurkat cells; conditions: Homo sapiens, 24 h, read-out: Viability rate
Nalm-6 = assay: MTT assay, Nalm-6 cells; conditions: Homo sapiens, 24 h
Description: as §1, §2, §3, §4, §5, §6, §7

[1] = MTT assay, Hek293T non-leukemic control cells; conditions: human, read-out: Viability rate
Molt-4 = assay: MTT assay, Molt-4 cells
[2] = test system: K562, Nalm-6, Molt-4, Reh, Jurkat, Hek293T cell lines; assay: MTT assay, overall judgement over all cell lines; conditions: overall judgement in words; for 6 and 10: on all cell lines, except Reh
Procedure, shortened: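 MTT viability assay run across a range of compound concentrations in leukemic lines, BCR-ABL positive K562 and BCR-ABL negative Nalm-6, Molt-4, Reh, Jurkat, plus non-leukemic Hek293T. Viability rate calculated per concentration.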

Reh = assay: MTT assay, Reh cells; conditions: Homo sapiens, 24 h, read-out: Viability rate

Compound: COc1ccc(CN2CCN(Cc3ccc(C(=O)Nc4ccc(C)c(Nc5cc(C)ccn5)c4)cc3)CC2)c(OC)c1OC [Compound 10, N-(4-Methyl-3-((4-methylpyridin-2-yl)amino)phenyl)-4-((4-(2,3,4-trimethoxybenzyl)piperazin-1-yl)methyl)benzamide]
- viability at 0.3 µM (K562; K562, 0.3 μM, MTT, read-out: Viability rate): 104.1 ± 0.07%
- viability at 0.5 µM (K562; K562, 0.5 μM, MTT, read-out: Viability rate): 103.4 ± 0.06%
- viability at 1 µM (K562; K562, 1 μM, MTT, read-out: Viability rate): 98.9 ± 0.05%
- viability at 3 µM (K562; K562, 3 μM, MTT, read-out: Viability rate): 98.7 ± 0.04%
- viability at 5 µM (K562; K562, 5 μM, MTT, read-out: Viability rate): 98.6 ± 0.06%
- viability at 10 µM (K562; K562, 10 μM, MTT, read-out: Viability rate): 98.9 ± 0.09%
- viability at 15 µM (K562; K562, 15 μM, MTT, read-out: Viability rate): 98.6 ± 0.08%
- viability at 20 µM (K562; K562, 20 μM, MTT, read-out: Viability rate): 79.2 ± 0.06%
- viability at 30 µM (K562; K562, 30 μM, MTT, read-out: Viability rate): 78.9 ± 0.1%
- viability at 50 µM (K562; K562, 50 μM, MTT, read-out: Viability rate): 56.1 ± 0.03%
- viability at 70 µM (K562; K562, 70 μM, MTT, read-out: Viability rate): 38.5 ± 0.02%
- viability at 100 µM (K562; K562, 100 μM, MTT, read-out: Viability rate): 38.7 ± 0.01%
- viability at 150 µM (K562; K562, 150 μM, MTT, read-out: Viability rate): 38.9 ± 0.01%
- viability at 200 µM (K562; K562, 200 μM, MTT, read-out: Viability rate): 38.7%
- IC50 (K562; K562, MTT, range 0.3–200 μM, six replicates): 35 µM
- viability at 0.3 µM (Jurkat; 0.3 μM): 73 ± 0.1%
- viability at 0.5 µM (Jurkat; 0.5 μM): 71.7 ± 0.1%
- viability at 1 µM (Jurkat; 1 μM): 70.9 ± 0.08%
- viability at 3 µM (Jurkat; 3 μM): 69.4 ± 0.03%
- viability at 5 µM (Jurkat; 5 μM): 68.7 ± 0.05%
- viability at 10 µM (Jurkat; 10 μM): 68.1 ± 0.09%
- viability at 15 µM (Jurkat; 15 μM): 67.5 ± 0.07%
- viability at 20 µM (Jurkat; 20 μM): 64.1 ± 0.15%
- viability at 30 µM (Jurkat; 30 μM): 61.7 ± 0.07%
- viability at 50 µM (Jurkat; 50 μM): 61.4 ± 0.05%
- viability at 70 µM (Jurkat; 70 μM): 50.5 ± 0.02%
- viability at 100 µM (Jurkat; 100 μM): 38.1 ± 0.2%
- viability at 150 µM (Jurkat; 150 μM): 35.9 ± 0.12%
- viability at 200 µM (Jurkat; 200 μM): 32.5 ± 0.03%
- viability at 0.3 µM (Nalm-6; Nalm-6, 0.3 μM, MTT, read-out: Viability rate): 92.7 ± 0.08%
- viability at 0.5 µM (Nalm-6; Nalm-6, 0.5 μM, MTT, read-out: Viability rate): 88.6 ± 0.06%
- viability at 1 µM (Nalm-6; Nalm-6, 1 μM, MTT, read-out: Viability rate): 87.3 ± 0.07%
- viability at 3 µM (Nalm-6; Nalm-6, 3 μM, MTT, read-out: Viability rate): 86.5 ± 0.02%
- viability at 5 µM (Nalm-6; Nalm-6, 5 μM, MTT, read-out: Viability rate): 85.5 ± 0.06%
- viability at 10 µM (Nalm-6; Nalm-6, 10 μM, MTT, read-out: Viability rate): 84.8 ± 0.08%
- viability at 15 µM (Nalm-6; Nalm-6, 15 μM, MTT, read-out: Viability rate): 82.2 ± 0.08%
- viability at 20 µM (Nalm-6; Nalm-6, 20 μM, MTT, read-out: Viability rate): 71.9 ± 0.07%
- viability at 30 µM (Nalm-6; Nalm-6, 30 μM, MTT, read-out: Viability rate): 54.2 ± 0.07%
- viability at 50 µM (Nalm-6; Nalm-6, 50 μM, MTT, read-out: Viability rate): 29.8 ± 0.01%
- viability at 70 µM (Nalm-6; Nalm-6, 70 μM, MTT, read-out: Viability rate): 28.8 ± 0.01%
- viability at 100 µM (Nalm-6; Nalm-6, 100 μM, MTT, read-out: Viability rate): 28.7 ± 0.01%
- viability at 150 µM (Nalm-6; Nalm-6, 150 μM, MTT, read-out: Viability rate): 28.5 ± 0.01%
- viability at 200 µM (Nalm-6; Nalm-6, 200 μM, MTT, read-out: Viability rate): 28.7%
- IC50 (Nalm-6; Nalm-6, MTT, range 0.3–200 μM, six replicates): 28.7 µM
- viability at 24 h, 0.3 µM ([1]; Hek293T cells (non-leukemic control cell line), 0.3 μM): 82.8 ± 0.02%
- viability at 24 h, 0.5 µM ([1]; Hek293T cells (non-leukemic control cell line), 0.5 μM): 78.2 ± 0.01%
- viability at 24 h, 3 µM ([1]; Hek293T cells (non-leukemic control cell line), 3 μM): 80.4 ± 0.02%
- viability at 24 h, 5 µM ([1]; Hek293T cells (non-leukemic control cell line), 5 μM): 79.1 ± 0.01%
- viability at 24 h, 10 µM ([1]; Hek293T cells (non-leukemic control cell line), 10 μM): 80.2 ± 0.02%
- viability at 24 h, 15 µM ([1]; Hek293T cells (non-leukemic control cell line), 15 μM): 81.4 ± 0.01%
- viability at 24 h, 20 µM ([1]; Hek293T cells (non-leukemic control cell line), 20 μM): 80.8 ± 0.01%
- viability at 24 h, 30 µM ([1]; Hek293T cells (non-leukemic control cell line), 30 μM): 82.2 ± 0.03%
- viability at 24 h, 50 µM ([1]; Hek293T cells (non-leukemic control cell line), 50 μM): 79.2 ± 0.03%
- viability at 24 h, 70 µM ([1]; Hek293T cells (non-leukemic control cell line), 70 μM): 80.2 ± 0.02%
- viability at 24 h, 100 µM ([1]; Hek293T cells (non-leukemic control cell line), 100 μM): 80.7 ± 0.01%
- viability at 24 h, 150 µM ([1]; Hek293T cells (non-leukemic control cell line), 150 μM): 80 ± 0.01%
- viability at 24 h, 200 µM ([1]; Hek293T cells (non-leukemic control cell line), 200 μM): 81 ± 0.02%
- viability at 24 h, 1 µM ([1]; Hek293T cells, 1 μM): 78.1 ± 0.01%
- viability at 0.3 µM (Molt-4; Homo sapiens, MOLT-4, 24 h, Molt-4, 0.3 μM, read-out: Viability rate): 87.9 ± 0.03%
- viability at 0.5 µM (Molt-4; Homo sapiens, MOLT-4, 24 h, Molt-4, 0.5 μM, read-out: Viability rate): 86.8 ± 0.02%
- viability at 1 µM (Molt-4; Homo sapiens, MOLT-4, 24 h, Molt-4, 1 μM, read-out: Viability rate): 87.7 ± 0.01%
- viability at 3 µM (Molt-4; Homo sapiens, MOLT-4, 24 h, Molt-4, 3 μM, read-out: Viability rate): 86.5 ± 0.02%
- viability at 5 µM (Molt-4; Homo sapiens, MOLT-4, 24 h, Molt-4, 5 μM, read-out: Viability rate): 86.2 ± 0.08%
- viability at 10 µM (Molt-4; Homo sapiens, MOLT-4, 24 h, Molt-4, 10 μM, read-out: Viability rate): 89.1 ± 0.03%
- viability at 15 µM (Molt-4; Homo sapiens, MOLT-4, 24 h, Molt-4, 15 μM, read-out: Viability rate): 88.1 ± 0.04%
- viability at 20 µM (Molt-4; Homo sapiens, MOLT-4, 24 h, Molt-4, 20 μM, read-out: Viability rate): 77 ± 0.04%
- viability at 30 µM (Molt-4; Homo sapiens, MOLT-4, 24 h, Molt-4, 30 μM, read-out: Viability rate): 65.3 ± 0.03%
- viability at 50 µM (Molt-4; Homo sapiens, MOLT-4, 24 h, Molt-4, 50 μM, read-out: Viability rate): 52.1 ± 0.03%
- viability at 70 µM (Molt-4; Homo sapiens, MOLT-4, 24 h, Molt-4, 70 μM, read-out: Viability rate): 42.8 ± 0.01%
- viability at 100 µM (Molt-4; Homo sapiens, MOLT-4, 24 h, Molt-4, 100 μM, read-out: Viability rate): 40.4 ± 0.01%
- viability at 150 µM (Molt-4; Homo sapiens, MOLT-4, 24 h, Molt-4, 150 μM, read-out: Viability rate): 40 ± 0.01%
- viability at 200 µM (Molt-4; Homo sapiens, MOLT-4, 24 h, Molt-4, 200 μM, read-out: Viability rate): 40.7 ± 0.01%
- Viability rate (Molt-4; Molt-4, 200 μM, 24 h, 200 µM): < 50%
- anticancer activity according to MTT assay results [2]: high anticancer activity
- viability at 0.3 µM (Reh; 0.3 μM): 93.4 ± 0.02%
- viability at 0.5 µM (Reh; 0.5 μM): 92.4 ± 0.02%
- viability at 1 µM (Reh; 1 μM): 92.4 ± 0.01%
- viability at 3 µM (Reh; 3 μM): 92.6 ± 0.02%
- viability at 5 µM (Reh; 5 μM): 92.8 ± 0.02%
- viability at 10 µM (Reh; 10 μM): 92.3 ± 0.03%
- viability at 15 µM (Reh; 15 μM): 92.6 ± 0.02%
- viability at 20 µM (Reh; 20 μM): 91.8 ± 0.01%
- viability at 30 µM (Reh; 30 μM): 65.6 ± 0.02%
- viability at 50 µM (Reh; 50 μM): 59.5 ± 0.03%
- viability at 70 µM (Reh; 70 μM): 59.1 ± 0.02%
- viability at 100 µM (Reh; 100 μM): 59.6 ± 0.03%
- viability at 150 µM (Reh; 150 μM): 57.4 ± 0.03%
- viability at 200 µM (Reh; 200 μM): 55.2 ± 0.03%
